Measurements as given in patent EP0046990A2, “2-Halogeno-4-alkyl-4,7-dihydro-7-oxo-thieno(3,2-b)-pyridine-6-carboxylic acids, salts thereof at the carboxyl group, pharmaceutical use thereof, and intermediates thereof” (KANEBO, LTD., priority 1980, dated 1982).
≈ marks a conversion by molar mass, not a printed value.

What was measured:
Proteus vulgaris OX-19 = assay: antimicrobial test (MIC); format: cell-based; conditions: OX19
[1] = tested on: Bacillus sub-tillis ATCC 6633; assay: antimicrobial test (MIC); format: cell-based; conditions: ATCC6633
[2] = tested on: Staphylococcus aureus 209-P; assay: antimicrobial test (MIC); format: cell-based
Escherichia coli K-12 = assay: antimicrobial test (MIC); format: cell-based; conditions: K12
[3] = tested on: Serratia marcescens IFO 3046; assay: antimicrobial test (MIC); format: cell-based; conditions: IFO3046
Escherichia coli NIHJ = assay: antimicrobial test (MIC); format: cell-based
[4] = tested on: Klebsiella pneumoniae IFO 3512; assay: antimicrobial test (MIC); format: cell-based; conditions: IFO3512
Proteus mirabilis 1287 = assay: antimicrobial test (MIC); format: cell-based
in vivo = conditions: mouse, oral administration to mice
Excerpt: The compounds of this invention have low toxicity.

Q: For `CCn1cc(C(=O)O)c(=O)c2sc(Cl)cc21` [Compound A, 2-chloro-4,7-dihydro-4-ethyl-7-oxo-thieno(3,2-b)pyridine-6-carboxylic acid], which MIC (Proteus vulgaris OX-19) is on record?
A: 12.5 mg/L (≈ 48.5 µM)

Q: What about the MIC [1] of the same molecule?
A: 12.5 mg/L (≈ 48.5 µM)

Q: What about the MIC [2] of the same molecule?
A: > 100 mg/L

Q: And the MIC (Escherichia coli K-12)?
A: 12.5 mg/L (≈ 48.5 µM)

Q: And the MIC [3]?
A: 3.13 mg/L (≈ 12.1 µM)

Q: And the MIC (Escherichia coli NIHJ)?
A: 1.56 mg/L (≈ 6.05 µM)

Q: What about the MIC [4] of the same molecule?
A: 6.25 mg/L (≈ 24.3 µM)

Q: And the MIC (Proteus mirabilis 1287)?
A: 6.25 mg/L (≈ 24.3 µM)

Q: Which MIC (Proteus vulgaris OX-19) does the source give for `CCn1cc(C(=O)O)c(=O)c2sc(Br)cc21` [Compound B, 2-bromo-4,7-dihydro-4-ethyl-7-oxo-thieno(3,2-b)pyridine-6-carboxylic acid] here?
A: 6.25 mg/L (≈ 20.7 µM)

Q: What about the MIC [1] of the same molecule?
A: 6.25 mg/L (≈ 20.7 µM)

Q: What about the MIC [2] of the same molecule?
A: > 100 mg/L

Q: And the MIC (Escherichia coli K-12)?
A: 6.25 mg/L (≈ 20.7 µM)

Q: What about the MIC [3] of the same molecule?
A: 1.56 mg/L (≈ 5.16 µM)

Q: And the MIC (Escherichia coli NIHJ)?
A: 1.56 mg/L (≈ 5.16 µM)

Q: What about the MIC [4] of the same molecule?
A: 3.13 mg/L (≈ 10.4 µM)

Q: And the MIC (Proteus mirabilis 1287)?
A: 3.13 mg/L (≈ 10.4 µM)

Q: Which MIC (Proteus vulgaris OX-19) does the source give for `CCn1cc(C(=O)O)c(=O)c2sc(I)cc21` [Compound C, 2-iodo-4,7-dihydro-4-ethyl-7-oxo-thieno(3,2-b)pyridine-6-carboxylic acid] here?
A: 0.78 mg/L (≈ 2.23 µM)

Q: And the MIC [1]?
A: 1.56 mg/L (≈ 4.47 µM)

Q: What about the MIC [2] of the same molecule?
A: 25 mg/L (≈ 71.6 µM)

Q: And the MIC (Escherichia coli K-12)?
A: 3.13 mg/L (≈ 8.96 µM)

Q: What about the MIC [3] of the same molecule?
A: 0.78 mg/L (≈ 2.23 µM)

Q: What about the MIC (Escherichia coli NIHJ) of the same molecule?
A: 1.56 mg/L (≈ 4.47 µM)

Q: What about the MIC [4] of the same molecule?
A: 1.56 mg/L (≈ 4.47 µM)

Q: And the MIC (Proteus mirabilis 1287)?
A: 0.78 mg/L (≈ 2.23 µM)

Q: And the LD50 (in vivo)?
A: 2800 mg/kg

Q: Which results are given for `CCn1cc(C(=O)O)c(=O)c2ccc(C)nc21` [Nalidixic acid, reference compound]?
A: MIC (Proteus vulgaris OX-19): 3.13 mg/L (≈ 13.5 µM); MIC [1]: 3.13 mg/L (≈ 13.5 µM); MIC [2]: > 100 mg/L; MIC (Escherichia coli K-12): 6.25 mg/L (≈ 26.9 µM); MIC [3]: 1.56 mg/L (≈ 6.72 µM); MIC (Escherichia coli NIHJ): 1.56 mg/L (≈ 6.72 µM); MIC [4]: 1.56 mg/L (≈ 6.72 µM); MIC (Proteus mirabilis 1287): 3.13 mg/L (≈ 13.5 µM)
